Laboratory results published in patent US20050250110A1, “PNA conjugate for treating chronic myeloid leukemia (CML)” (priority 2001, published 2005).

Experiments:
tumor cell line K562 = assay: Apoptosis behavior of K562 cells: cell number after 24 h treatment and subsequent PNA removal; assay type: cell-based; conditions: 100 nM for 24 h
Description: The cell number change is shown on a time axis. The treatment was carried out for 24 h and by means of subsequent PNA removal. Final concentration: 100 nM. Dark blue line: AS conjugate; magenta: random sequence conjugate; yellow: AS-non-ligated; blue: untreated control.
The question of the apoptosis behavior following the administration of a conjugate according to the invention (corresponding to Example 3 and FIG. 6) was studied as such. The incubation period was 24 hours with 5% CO2 at 37° C. in an incubator. Having removed the medium mixture and carrying out a wash step twice using fresh RPMI-1640, the same volume of fresh medium was added by pipetting and further cultured. The medium was changed every 72 hours. The cultures were treated as before: As in the previous experiment, a break-down of the untreated culture was again found after about 72 hours. […] The relative stability up to 144 hours following the removal of antisense NLS-PNA was striking in the culture treated with antisense NLS-PNA.

[1] = tested on: tumor cell line K562 (Ph-positive); assay: Growth behavior of K562 cells following administration of PNA conjugates (cell number, Coulter Counter); assay type: cell-based

## Transport peptide (penetratin)-disulfide bridge-NLS—KK(FITC)—PNA^BCR/Abl (sequence of PNA^BCR/Abl: H2N-TGCGTGTGGATGATTCTTTGTTTTAA-COOH) [antisense NLS penetratin]
Tumor cell line K562; then PNA removal
  relative stability of the culture, time following PNA removal: up to 144 hours
  time of the maximum cell number following PNA removal: 120 h
Tumor cell line K562; then PNA removal and further culture, medium changed every 72 hours
  cell growth / cell number after PNA removal: minor increase in the cell number
[1]; 100 nM, in contrast to the controls
  phenotype of the treated cells: vital phenotype
[1]; final concentration 100 nM, treatment throughout the experiment
  stabilization of the cell number, time after the treatment: 24 h
[1]; final concentration 100 nM, treatment throughout the experiment, compared with untreated control
  growth behavior (cell number change on a time axis): stagnation of the cell proliferation
